Experimental data published in the supplement of paper PMC10307832.

Tests used:
Assay in all cases: relative viability (nuclei count vs DMSO), 5 days (fraction); higher = more cells survive
Tosedostat + Alpelisib = compound: CC(C)C[C@@H](C(=O)N[C@H](C(=O)OC1CCCC1)c1ccccc1)[C@H](O)C(=O)NO [Tosedostat] + Cc1nc(NC(=O)N2CCC[C@H]2C(N)=O)sc1-c1ccnc(C(C)(C)C(F)(F)F)c1 [Alpelisib] (partner 2 µM)
Procedure, shortened: (§1)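 Medians of duplicate plates are given as relative viability. That measure is the nuclei count in treated wells divided by the count in vehicle wells. Counts were taken on 4× images of lung cancer cell lines in 1536-well plates, 5 days after pin-tool dosing the day after seeding with one drug alone or a fixed anchor-drug dose plus five library-drug doses (not always all listed) in √10 steps.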

Tosedostat + Phenformin = compound: CC(C)C[C@@H](C(=O)N[C@H](C(=O)OC1CCCC1)c1ccccc1)[C@H](O)C(=O)NO [Tosedostat] + N=C(N)NC(=N)NCCc1ccccc1 [Phenformin] (partner 250 µM)
Procedure, shortened: as §1

[1] = compound: CC1=NN=C(O1)C2=NN=C(C=C2)N3CCC(CC3)OC4=C(C=CC(=C4)F)Cl + Nc1nc2[nH]cc(CCc3ccc(C(=O)N[C@@H](CCC(=O)O)C(=O)O)cc3)c2c(=O)[nH]1 [Pemetrexed] (partner 0.2 µM)
Procedure, shortened: as §1

[2] = compound: CC1=NN=C(O1)C2=NN=C(C=C2)N3CCC(CC3)OC4=C(C=CC(=C4)F)Cl + Cc1nc(NC(=O)N2CCC[C@H]2C(N)=O)sc1-c1ccnc(C(C)(C)C(F)(F)F)c1 [Alpelisib] (partner 2 µM)
Procedure, shortened: as §1

## UMC-11
Tosedostat + Alpelisib; first compound 0.02 µM
  relative viability: 0.962
Tosedostat + Alpelisib; first compound 0.06325 µM
  relative viability: 0.87
Tosedostat + Alpelisib; first compound 0.2 µM
  relative viability: 0.957
Tosedostat + Alpelisib; first compound 0.6325 µM
  relative viability: 0.942
Tosedostat + Alpelisib; first compound 2 µM
  relative viability: 1.03
Tosedostat + Phenformin; first compound 0.02 µM
  relative viability: 0.353
Tosedostat + Phenformin; first compound 0.06325 µM
  relative viability: 0.328
Tosedostat + Phenformin; first compound 0.2 µM
  relative viability: 0.298
Tosedostat + Phenformin; first compound 0.6325 µM
  relative viability: 0.282
Tosedostat + Phenformin; first compound 2 µM
  relative viability: 0.278
[1]; first compound 0.253 µM
  relative viability: 0.504
[1]; first compound 0.8 µM
  relative viability: 0.535
[1]; first compound 2.53 µM
  relative viability: 0.518
[1]; first compound 8 µM
  relative viability: 0.37
[2]; first compound 0.253 µM
  relative viability: 0.744
[2]; first compound 0.8 µM
  relative viability: 0.679
[2]; first compound 2.53 µM
  relative viability: 0.687
[2]; first compound 8 µM
  relative viability: 0.667
